Converted amounts (≈) assume the structure as drawn.
Legend:
Candida albicans [1] = experiment: Antifungal activity against CDR2 deficient Candida albicans DSY653 incubated for 48 hrs by alamar blue assay; format: functional; details: DSY653, 48 h
Candida albicans [2] = experiment: Antifungal activity against MDR1 deficient Candida albicans DSY465 incubated for 48 hrs by alamar blue assay; format: functional; details: DSY465, 48 h
Candida albicans [3] = experiment: Antifungal activity against CDR1 deficient Candida albicans DSY448 incubated for 48 hrs by alamar blue assay; format: functional; details: DSY448, 48 h
Candida albicans [4] = experiment: Antifungal activity against CDR1 and CDR2 deficient Candida albicans DSY654 incubated for 48 hrs by alamar blue assay; format: functional; details: DSY654, 48 h
Candida albicans [5] = experiment: Antifungal activity against Candida albicans SC5314 incubated for 48 hrs by alamar blue assay; format: functional; details: SC5314, 48 h
Candida albicans [6] = experiment: Inhibition of ERG6/ERG11 in CDR1 and CDR2 deficient Candida albicans DSY654 assessed as induction of alteration in sterol composition by measuring zymosterol level at 16 ug/ml incubated for 10 hrs by GC-MS method (reference value: 2.78 +/- 0.53%); parameters: scale not given: the % may be the effect or the level left
Candida albicans [7] = experiment: Inhibition of the yeast-to-hyphal transition in CDR1 and CDR2 deficient Candida albicans DSY654 incubated for 5 days grown in solid SD medium by microphotography; format: functional, organism-based
Candida albicans [8] = experiment: Drug accumulation in Candida albicans SC5314 at 16 ug/ml incubated for 10 hrs in presence of 16 ug/ml CDR inhibitor RD by HPLC method relative to untreated control; format: ADME, organism-based; details: in vivo
Candida albicans [9] = experiment: Inhibition of ERG6/ERG11 in CDR1 and CDR2 deficient Candida albicans DSY654 assessed as feedback mechanism based up-regulation of ERG6 mRNA expression at 16 ug/ml incubated for 10 hrs by qPCR method relative to untreated control
Candida albicans [10] = experiment: Inhibition of ERG6/ERG11 in CDR1 and CDR2 deficient Candida albicans DSY654 assessed as feedback mechanism based up-regulation of ERG11 mRNA expression at 16 ug/ml incubated for 10 hrs by qPCR method relative to untreated control
Candida albicans [11] = experiment: Drug accumulation in CDR1 and CDR2 deficient Candida albicans DSY654 at 16 ug/ml incubated for 10 hrs by HPLC method relative to wild type Candida albicans SC5314; format: ADME, organism-based; details: in vivo
Candida albicans [12] = experiment: Inhibition of ERG6/ERG11 in CDR1 and CDR2 deficient Candida albicans DSY654 assessed as induction of alteration in sterol composition by measuring lanosterol level at 16 ug/ml incubated for 10 hrs by GC-MS method (reference value: 1.63 +/- 0.28%); parameters: scale not given: the % may be the effect or the level left
Candida albicans [13] = experiment: Inhibition of ERG6/ERG11 in CDR1 and CDR2 deficient Candida albicans DSY654 assessed as induction of alteration in sterol composition by measuring fecosterol level at 16 ug/ml incubated for 10 hrs by GC-MS method (reference value: 8.36 +/- 0.3%); parameters: scale not given: the % may be the effect or the level left
Candida albicans [14] = experiment: Inhibition of ERG6/ERG11 in CDR1 and CDR2 deficient Candida albicans DSY654 assessed as induction of alteration in sterol composition by measuring ergosterol level at 16 ug/ml incubated for 10 hrs by GC-MS method (reference value: 55.60 +/- 0.29%); parameters: scale not given: the % may be the effect or the level left
Candida albicans [15] = experiment: Inhibition of the yeast-to-hyphal transition in CDR1 and CDR2 deficient Candida albicans DSY654 incubated for 5 days grown in liquid RPMI 1640 medium by microphotography; format: functional, organism-based

MIC80 (Candida albicans [1]) [µg/mL] | MIC80 (Candida albicans [2]) [µg/mL] | MIC80 (Candida albicans [3]) [µg/mL] | MIC80 (Candida albicans [4]) [µg/mL] | MIC80 (Candida albicans [5]) [µg/mL] | Activity (Candida albicans [6]) [%] | fold change (FC) (Candida albicans [8]) | fold change (FC) (Candida albicans [9]) | fold change (FC) (Candida albicans [10]) | fold change (FC) (Candida albicans [11]) | Activity (Candida albicans [12]) [%] | Activity (Candida albicans [13]) [%] | Activity (Candida albicans [14]) [%] | SMILES | inhibition (Candida albicans [7]) | inhibition (Candida albicans [15])
> 128 | > 128 | > 128 | > 128 | > 128 | – | – | – | – | – | – | – | – | CC1(C)C[C@H](O)C[C@@]2(C)OC(=O)C=C12 [LOLIOLIDE] | – | –
> 128 | > 128 | > 128 | > 128 | > 128 | – | – | – | – | – | – | – | – | C=C1CCC[C@@]2(C)C[C@@H]3OC(=O)[C@@H](C)[C@@H]3C[C@H]12 | – | –
> 128 | > 128 | > 128 | > 128 | > 128 | – | – | – | – | – | – | – | – | C=C1CCC[C@@]2(C)C[C@@H]3OC(=O)[C@](CO)(OCC)[C@@H]3C[C@H]12 | – | –
> 128 | > 128 | > 128 | 64 (≈ 271 µM) | > 128 | – | – | – | – | – | – | – | – | C=C(CO)[C@H]1CC[C@]2(C)CCCC(=C)[C@H]2[C@H]1O | – | –
> 128 | > 128 | > 128 | > 128 | > 128 | – | – | – | – | – | – | – | – | CC1=CCC[C@@]2(C)C[C@@H]3OC(=O)[C@H](C)[C@@H]3C[C@H]12 | – | –
> 128 | > 128 | > 128 | > 128 | > 128 | – | – | – | – | – | – | – | – | C=C1CCC[C@@]2(C)C[C@@H]3OC(=O)[C@]4(CO4)[C@@H]3C[C@H]12 | – | –
> 128 | > 128 | > 128 | 64 (≈ 290 µM) | > 128 | – | – | – | – | – | – | – | – | C=C1CCC[C@@]2(C)C[C@H](O)[C@H](C(=C)C)C[C@H]12 | – | –
> 128 | > 128 | > 128 | > 128 | > 128 | – | – | – | – | – | – | – | – | CC1=CC(=O)C[C@@]2(C)CC[C@](O)(C(C)C)C[C@H]12 | – | –
> 128 | > 128 | > 128 | 32 (≈ 128 µM) | > 128 | – | – | – | – | – | – | – | – | C=C1CCC[C@@]2(C)C[C@@H]3OC(=O)[C@@](C)(O)[C@@H]3C[C@H]12 | – | –
> 128 | > 128 | > 128 | 16 (≈ 68.9 µM) | > 128 | 10.8 | 10.4 | 9.3 | 2.7 | 4.95 | 17.2 | 6.16 | 33.7 | C=C1CCC[C@@]2(C)C[C@@H]3OC(=O)C(=C)[C@@H]3C[C@H]12 | Dose-dependent effect | Dose-dependent effect
> 128 | > 128 | > 128 | > 128 | > 128 | – | – | – | – | – | – | – | – | C=C(C)[C@@H]1C[C@@]2(C(C)=O)C[C@@H](O)C[C@@]2(C)C[C@@H]1O | – | –
> 128 | > 128 | > 128 | 64 (≈ 258 µM) | > 128 | – | – | – | – | – | – | – | – | C=C1CCC[C@@]2(C)C[C@@]3(O)OC(=O)C(C)=C3C[C@H]12 | – | –

Reference: ChEMBL document CHEMBL4177579, “Eudesmane sesquiterpenes from Chinese liverwort are substrates of Cdrs and display antifungal activity by targeting Erg6 and Erg11 of Candida albicans” (Bioorg Med Chem, 2017)
